Laboratory results taken from the supplement of paper PMC6045584.
± gives the standard deviation of the averaged measurements.

Key:
EVEROLIMUS = compound: CO[C@H]1C[C@@H]2CC[C@@H](C)[C@@](O)(O2)C(=O)C(=O)N2CCCC[C@H]2C(=O)O[C@H]([C@H](C)C[C@@H]2CC[C@@H](OCCO)[C@H](OC)C2)CC(=O)[C@H](C)/C=C(\C)[C@@H](O)[C@@H](OC)C(=O)[C@H](C)C[C@H](C)/C=C/C=C/C=C/1C [EVEROLIMUS]; assay: surviving fraction relative to DMSO-only wells; higher = less growth inhibition; conditions: exposure time: 5 days
Method in brief: (§1)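 Tumour cell lines were seeded in log phase at 250–500 cells per well into 384-well plates. Starting 24 hours later, inhibitors were present continuously for five days at 0.5, 1, 5, 10, 50, 100, 500 and 1000 nM. Surviving fraction, from CellTiter-Glo luminescence, is normalised to the median of DMSO-only wells. Three screens per line were required, with replicate Pearson r >0.7 and median Z' >0.3 for a line to be kept.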

MK0752 = compound: O=C(O)CC[C@H]1CC[C@@](c2cc(F)ccc2F)(S(=O)(=O)c2ccc(Cl)cc2)CC1 [MK0752]; assay: as above; conditions: exposure time: 5 days
Method in brief: as §1

Test System	surviving fraction (EVEROLIMUS; 0.5 nM)	surviving fraction (EVEROLIMUS; 1 nM)	surviving fraction (EVEROLIMUS; 5 nM)	surviving fraction (EVEROLIMUS; 10 nM)	surviving fraction (EVEROLIMUS; 50 nM)	surviving fraction (EVEROLIMUS; 100 nM)	surviving fraction (EVEROLIMUS; 500 nM)	surviving fraction (EVEROLIMUS; 1000 nM)	surviving fraction (MK0752; 0.5 nM)	surviving fraction (MK0752; 1 nM)	surviving fraction (MK0752; 5 nM)	surviving fraction (MK0752; 10 nM)	surviving fraction (MK0752; 50 nM)	surviving fraction (MK0752; 100 nM)	surviving fraction (MK0752; 500 nM)	surviving fraction (MK0752; 1000 nM)
SCC36 HEADNECK	1.07 ± 0.056	1.09 ± 0.14	1.03 ± 0.018	0.899 ± 0.061	1.008 ± 0.0093	0.909 ± 0.097	0.842 ± 0.031	0.733 ± 0.014	1.06 ± 0.15	1.13 ± 0.14	1.19 ± 0.064	0.962 ± 0.057	1.12 ± 0.035	1.03 ± 0.055	1.03 ± 0.047	0.965 ± 0.073
SCC47 HEADNECK	1.02 ± 0.053	1 ± 0.017	1.01 ± 0.053	0.95 ± 0.024	0.961 ± 0.053	0.961 ± 0.043	0.937 ± 0.16	0.843 ± 0.032	1.13 ± 0.12	1.17 ± 0.034	1.2 ± 0.089	1.14 ± 0.029	1.14 ± 0.064	1.18 ± 0.038	1.03 ± 0.067	1.06 ± 0.058
SCC90 HEADNECK	0.857 ± 0.032	0.816 ± 0.08	0.68 ± 0.048	0.643 ± 0.028	0.556 ± 0.019	0.563 ± 0.039	0.522 ± 0.063	0.5257 ± 0.0047	1.19 ± 0.014	1.11 ± 0.15	1.24 ± 0.11	1.25 ± 0.12	1.11 ± 0.064	1.13 ± 0.11	1.03 ± 0.093	1.11 ± 0.091
SG27 HEADNECK	1.1 ± 0.11	1.02 ± 0.019	0.978 ± 0.07	1.01 ± 0.046	0.871 ± 0.037	0.904 ± 0.11	0.92 ± 0.046	0.903 ± 0.08	0.973 ± 0.05	0.891 ± 0.052	1.05 ± 0.082	0.988 ± 0.096	1.01 ± 0.066	1.08 ± 0.047	0.933 ± 0.14	0.923 ± 0.16
SG28 HEADNECK	1.15 ± 0.028	1.09 ± 0.026	0.879 ± 0.063	0.8505 ± 0.005	0.809 ± 0.026	0.767 ± 0.0028	0.68 ± 0.0028	0.775 ± 0.0028	1.15 ± 0.048	1.04 ± 0.062	1.05 ± 0.055	1.1 ± 0.027	0.982 ± 0.075	1.05 ± 0.044	1.12 ± 0.13	1.13 ± 0.11
SG31 HEADNECK	0.931 ± 0.077	0.905 ± 0.11	0.638 ± 0.041	0.62 ± 0.01	0.641 ± 0.035	0.591 ± 0.1	0.539 ± 0.035	0.574 ± 0.047	1.16 ± 0.18	1.07 ± 0.14	1.02 ± 0.2	0.991 ± 0.21	0.881 ± 0.14	0.963 ± 0.099	1.04 ± 0.17	1.11 ± 0.095
SG32 HEADNECK	1.22 ± 0.19	1.22 ± 0.15	1.44 ± 0.47	1.01 ± 0.14	0.813 ± 0.052	0.601 ± 0.082	0.556 ± 0.025	0.499 ± 0.026	1.11 ± 0.091	1.2 ± 0.039	1.26 ± 0.085	1.23 ± 0.11	1.21 ± 0.23	1.18 ± 0.039	0.972 ± 0.14	1.05 ± 0.086
SG43 HEADNECK	1.18 ± 0.069	0.963 ± 0.053	0.943 ± 0.035	0.833 ± 0.13	0.874 ± 0.073	0.872 ± 0.13	0.908 ± 0.13	0.882 ± 0.071	0.854 ± 0.3	0.901 ± 0.056	1.07 ± 0.43	0.862 ± 0.29	1.03 ± 0.18	0.934 ± 0.16	1.61 ± 0.055	1.08 ± 0.19
SIHA CERVIX	0.822 ± 0.043	0.741 ± 0.04	0.64 ± 0.02	0.973 ± 0.61	0.605 ± 0.061	0.592 ± 0.049	0.498 ± 0.044	0.499 ± 0.008	1.1 ± 0.046	1.15 ± 0.024	1.12 ± 0.044	1.15 ± 0.053	1.15 ± 0.025	1.21 ± 0.085	1.16 ± 0.11	1.14 ± 0.051
SJSA1 BONE	1.58 ± 0.029	1.72 ± 0.099	1.5 ± 0.24	1.63 ± 0.07	1.38 ± 0.023	1.7 ± 0.048	1.38 ± 0.26	1.73 ± 0.11	1 ± 0.03	1.09 ± 0.044	1.02 ± 0.089	1.09 ± 0.06	1.08 ± 0.036	1.14 ± 0.02	1.03 ± 0.027	1.07 ± 0.044
SKBR3 BREAST	0.615 ± 0.048	0.561 ± 0.009	0.414 ± 0.021	0.389 ± 0.015	0.37 ± 0.03	0.316 ± 0.016	0.312 ± 0.021	0.295 ± 0.018	0.854 ± 0.14	1.05 ± 0.18	1.02 ± 0.06	0.917 ± 0.086	1.11 ± 0.092	1.08 ± 0.05	0.961 ± 0.11	1.06 ± 0.11
